Columns and labels:
Format in all cases: cell-based, human
[1] = tested on: foreskin cells in which senescence was induced by doxorubicin; experiment: CellTiter-Glo cell viability of doxorubicin-induced senescent foreskin cells (Examples 1-2, 10, 11, 13; Tables 4, 63, 65); conditions: doxorubicin-induced senescent foreskin cells, CellTiter-Glo, 0 μM = 100; for viability at 1.1 µM / viability at […] / viability at 10 µM / viability at 30 µM: Homo sapiens, 72 h, read-out: Survival (%)
HMGN1 [2] = experiment: HMGN1 ELISA in culture medium of foreskin cells (Examples 10, 11; Tables 62, 63, 64); conditions: doxorubicin-treated foreskin cells, DMSO = 100; for activity at 30 µM: Homo sapiens, read-out: HMGN1
HMGN1 [3] = experiment: HMGN1 ELISA in culture medium of A549 cancer cells (Example 12, Table 66); conditions: ELISA, DMSO = 100; for HMGN1 (amount of HMGN1 secreted in the cell culture): doxorubicin-induced senescent A549 cells; for activity at 30 µM / activity at 90 µM: Homo sapiens, A549, doxorubicin-induced senescent A549 cells, read-out: HMGN1 (amount of HMGN1 secreted in the cell culture); for activity at 30 µM: test compound 30 μM
A549 = experiment: CellTiter-Glo cell viability of senescent A549 cancer cells (Example 12, Table 67); conditions: CellTiter-Glo; for Survival (%): doxorubicin-induced senescent A549 cancer cells; for viability at 1.1 µM / viability at 10 µM / viability at 30 µM / viability at 90 µM: Homo sapiens, A549, doxorubicin-induced senescent A549 cancer cells, read-out: Survival (%)
senescent foreskin cells = experiment: survival of senescent foreskin cells treated with medium supernatant (secreted fluid) of compound-killed cells (Example 13, Tables 68, 69); conditions: culture medium supernatant from dying senescent cells treated with compound at 30 μM, 90 μM or 270 μM; senescent foreskin cells

Compound	viability at 1.1 µM ([1]; 1.1 μM test compound) [%]	viability at […] ([1]; […] test compound) [%]	activity at 30 µM (HMGN1 [2]; 30 μM test compound) [%]	activity at 30 µM (HMGN1 [3]) [%]	viability at 1.1 µM (A549; 1.1 μM test compound) [%]	viability at 10 µM (A549; 10 μM test compound) [%]	viability at 10 µM ([1]; 10 μM test compound) [%]	viability at 30 µM (A549; 30 μM test compound) [%]	also measured
LX-3401: Interferon gamma, CAS 98059-61-1 (IFNy-1b), 82115-62-6	–	–	–	–	–	–	–	–	Survival (%) ([1]; 1.1 μM test compound): 101.8%; Survival (%) ([1]; 10 μM test compound): 75.8%; Survival (%) ([1]; 30 μM test compound): 35.4%; Survival (%) ([1]; […] test compound): 98.1%; HMGN1 (HMGN1 [2]; 20 ng/ml test compound): 198; HMGN1 (amount of HMGN1 secreted in the cell culture) (HMGN1 [3]; test compound 20 ng/ml): 284; Survival (%) (A549; 1.1 μM test compound): 110.8%; Survival (%) (A549; 10 μM test compound): 58.3%; Survival (%) (A549; 30 μM test compound): 5.8%; Survival (senescent foreskin cells): 66.8
[3,4,5-triacetyloxy-6-[4-[2-[(dimethylamino)methyl]prop-2-enoyl]phenoxy]oxan-2-yl]methyl acetate [LX-918]	–	–	–	–	–	–	–	–	Survival (%) ([1]; 1.1 μM test compound): 98.9%; Survival (%) ([1]; 10 μM test compound): 94.5%; Survival (%) ([1]; 30 μM test compound): 32.7%; Survival (%) ([1]; […] test compound): 95.4%; HMGN1 (HMGN1 [2]; 30 μM test compound): 247; HMGN1 (amount of HMGN1 secreted in the cell culture) (HMGN1 [3]; test compound 90 μM): 200; Survival (%) (A549; 1.1 μM test compound): 103.8%; Survival (%) (A549; 10 μM test compound): 86.7%; Survival (%) (A549; 30 μM test compound): 82.9%; Survival (%) (A549; 90 μM test compound): 31.8%; Survival (senescent foreskin cells): 63.8
CS(=O)(=O)c1ncc(Cl)c(C(=O)O)n1 [LX-917]	–	–	–	–	–	–	–	–	Survival (%) ([1]; 1.1 μM test compound): 101.8%; Survival (%) ([1]; 10 μM test compound): 45.8%; Survival (%) ([1]; 30 μM test compound): 4.7%; Survival (%) ([1]; […] test compound): 93.2%; HMGN1 (HMGN1 [2]; 30 μM test compound): 269; HMGN1 (amount of HMGN1 secreted in the cell culture) (HMGN1 [3]; test compound 90 μM): 223; Survival (%) (A549; 1.1 μM test compound): 101.5%; Survival (%) (A549; 10 μM test compound): 65.7%; Survival (%) (A549; 30 μM test compound): 17.1%; Survival (%) (A549; 90 μM test compound): 3.5%; Survival (senescent foreskin cells): 42.5
CN1CC[C@@H](Nc2cccc3c2cc(-c2noc(CNC(=O)c4cnn(C(C)(C)C)c4)n2)n3CC(F)(F)F)[C@@H](F)C1 [LX-915]	–	–	–	–	–	–	–	–	Survival (%) ([1]; 1.1 μM test compound): 94.7%; Survival (%) ([1]; 10 μM test compound): 72.8%; Survival (%) ([1]; 30 μM test compound): 8.5%; Survival (%) ([1]; […] test compound): 83.2%; HMGN1 (HMGN1 [2]; 30 μM test compound): 297; HMGN1 (amount of HMGN1 secreted in the cell culture) (HMGN1 [3]; test compound 90 μM): 229; Survival (%) (A549; 1.1 μM test compound): 94.7%; Survival (%) (A549; 10 μM test compound): 86.9%; Survival (%) (A549; 30 μM test compound): 84.9%; Survival (%) (A549; 90 μM test compound): 6.8%; Survival (senescent foreskin cells): 53.1
C=C1C(=O)O[C@H]2C1CC/C(COC(=O)/C=C/c1c(OC)cccc1OC)=C\CCC1(C)O[C@H]21 (some centres unmarked) [LX-601]	6.1	3.3	293	318	13.8	–	–	–	–
CNC(=O)CC[C@]12CCC(C)(C)C[C@H]1[C@H]1C(=O)C=C3[C@@]4(C)C=C(C#N)C(=O)C(C)(C)[C@@H]4CC[C@@]3(C)[C@]1(C)CC2 [LX-2403]	38.1	15.2	319	267	100	3.2	–	–	–
COC(=O)[C@@]1(C)CC[C@]2(C)CC[C@]3(C)[C@H](C(=O)C=C4[C@@]5(C)C=C(C#N)C(=O)C(C)(C)C5CC[C@]43C)[C@@H]2C1 (some centres unmarked) [LX-2513, Soloxolone methyl]	49.6	2.6	325	311	105	6.9	–	–	–
Cc1onc(C(=O)N2CCN(C(c3ccc(Cl)cc3)c3ccc(OCc4cn(CCOCCOCCOCCOCCNc5cccc6c5C(=O)N(C5CCC(=O)NC5=O)C6=O)nn4)cc3)CC2)c1[N+](=O)[O-] (centres unmarked) [LX-436, 4-((14-(4-((4-((4-chlorophenyl)(4-(5-methyl-4-nitroisooxazol-3-carbonyl)piperazin-1-yl)methyl)phenoxy)methyl)-1H-1,2,3-triazol-1-yl)-3,6,9,12-tetraoxatetradecyl)amino)-2-(2,6-dioxopiperidin-3-yl)isoindolin-1,3-dione]	84.4	3.8	299	278	99.5	–	–	–	–
CCN(CC)C(=S)SSC(=S)N(CC)CC [LX-1601, Disulfiram, reference compound]	93.7	90	154	–	114	118	95.6	74.2	viability at 30 µM ([1]; 30 μM test compound): 61.4%; activity at 90 µM (HMGN1 [3]; test compound 90 μM): 257%; viability at 90 µM (A549; 90 μM test compound): 3.1%
C[C@@H]1C(=O)C(C#N)=C[C@]2(C)C3=CC(=O)[C@@H]4[C@@H]5CC(C)(C)CC[C@]5(CO)CC[C@@]4(C)[C@]3(C)CC[C@@H]12 [LX-2317]	48.2	7.8	317	282	93.5	29.7	–	–	–
C=CC(=O)N1CCC([C@@H]2CCNc3c(C(N)=O)c(-c4ccc(Oc5ccccc5)cc4)nn32)CC1 [LX-3309, Zanubrutinib, reference compound]	99.3	87.1	293	247	104	49.6	36.9	35.2	–
CCn1c2ccccc2c2cc(NC(=O)COC(=O)C3CCC(=O)N3)ccc21 (centres unmarked) [LX-902]	97.9	91.6	268	–	94.6	88.2	72.8	62.7	viability at 30 µM ([1]; 30 μM test compound): 23.9%; activity at 90 µM (HMGN1 [3]; test compound 90 μM): 234%; viability at 90 µM (A549; 90 μM test compound): 25.8%
O=S(=O)(NC1CCCCC1)c1ccc2c(c1)C(=NO)c1cc(S(=O)(=O)NC3CCCCC3)ccc1-2 [LX-602]	79	55.2	248	248	102	99	25.9	41.8	viability at 30 µM ([1]; 30 μM test compound): 16.1%; viability at 90 µM (A549; 90 μM test compound): 2.7%
CCn1c(C#CCNc2ccccc2)cc2cc(CNC)ccc21 [LX-905]	97.6	91.6	318	–	101	83.1	42.5	79.5	viability at 30 µM ([1]; 30 μM test compound): 6.9%; activity at 90 µM (HMGN1 [3]; test compound 90 μM): 217%; viability at 90 µM (A549; 90 μM test compound): 22.7%
COC1=C(OC)C(=O)C(CCCCCCCCCC[P+](c2ccccc2)(c2ccccc2)c2ccccc2)=C(C)C1=O [LX-1203, Mitoquinone]	–	38.2	311	298	88.7	15.5	1.5	–	–
